Measured values reported in ChEMBL document CHEMBL1144271, “Carbonic anhydrase inhibitors: synthesis and inhibition of cytosolic/tumor-associated carbonic anhydrase isozymes I, II, and IX with bis-sulfamates” (Bioorg Med Chem Lett, 2005).

Key:
Carbonic anhydrase 9 = Carbonic anhydrase 9 (Homo sapiens, UniProt Q16790)
Carbonic anhydrase 1 = Carbonic anhydrase 1 (Homo sapiens, UniProt P00915)
Carbonic anhydrase 1, sequence (P00915 whole entry): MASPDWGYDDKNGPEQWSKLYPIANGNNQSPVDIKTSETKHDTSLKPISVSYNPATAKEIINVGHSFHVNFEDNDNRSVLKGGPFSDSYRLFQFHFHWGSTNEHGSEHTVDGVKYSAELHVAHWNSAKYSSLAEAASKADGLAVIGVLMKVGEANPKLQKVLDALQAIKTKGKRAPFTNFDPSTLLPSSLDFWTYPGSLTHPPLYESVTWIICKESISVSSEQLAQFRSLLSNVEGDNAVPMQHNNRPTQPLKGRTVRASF

| SMILES | Ki (Carbonic anhydrase 9) [nM] | Ki (Carbonic anhydrase 1) [nM] |
| --- | --- | --- |
| NS(=O)(=O)OCCCCCCCOS(N)(=O)=O | 10.1 |  |
| NS(=O)(=O)OCc1ccc(COS(N)(=O)=O)cc1 | 61.6 | > 20 |
| C[C@]12CC[C@@H]3c4ccc(OS(N)(=O)=O)cc4CC[C@H]3[C@@H]1CC[C@@H]2OS(N)(=O)=O |  | 6000 |
